Assay results published in patent publication US9115059B2, “Oxime derivatives of 3,5-seco-4-nor-cholestane, pharmaceutical compositions containing same, and method for preparing same” (TROPHOS, priority 2008, dated 2015).

system: motoneurons; assay: Survival of motoneurons under trophic deprivation in vitro (calcein fluorescence); format: cell-based; settings: concentration 0.3 μM; E14 rat motoneurons, 3 days of culture in Neurobasal medium without trophic factors
Text: It may be useful to refer to patent application WO 0142784 of the applicant regarding culture of the motoneurons of the spinal cord.
The spinal cord of E14 rat embryos is dissected and the ventral part is dissociated by trituration after trypsinization.
The motoneurons are separated from the other spinal cells by a known method (Camu et al., 1993, Purification of spinal motoneurons from chicken and rat embryos by immunopanning. In “Immunoselection Strategies for Neural cell culture”, Neuroprotocols: A companion to Methods in Neurosciences 2, 191-199; Henderson et al., 1993, Neutrophins promote motoneuron survival and are present in embryonic limb bud. Nature 363 (6426):266-70).
The cells are centrifuged on a density gradient. The motoneurons are enriched in the fraction of large cells (the […]). The cells of this fraction are incubated with an anti-p75 antibody, a surface antigen present on motoneurons.
Secondary antibodies coupled to magnetic beads are added and the mixture of cells is passed through a column in a magnet (Arce et al., 1999 Cardiotrophin-1 requires LIFRbeta to promote survival of mouse motoneurons purified by a novel technique. J. Neurosci Res 55(1): 119-26). Only the motoneurons are retained: their purity is of the order of 90%.
The motoneurons are seeded at low density in culture wells on a polyornithine-laminin substrate in a Neurobasal medium (GIBCO) supplemented according to Raoul et al., 1999, Programmed cell death of embryonic motoneurons triggered through the Fas death receptor. J Cell Biol 147(5):1049-62.
Negative controls (absence of trophic factors) and positive controls (in the presence of BDNF (Brain-Derived Neurotrophic Factor) at 1 ng/ml, GDNF (Glial-Derived Neurotrophic Factor) at 1 ng/ml and CNTF (Ciliary Neurotrophic Factor) at 10 ng/ml, marketed by the American company PEPROTECH, Inc. and the company Sigma-Aldrich, are included in each series.
The test compounds are added 60 minutes after seeding and the cultures are kept at 37° C. under 5% CO2 for 3 days.
The motoneurons have a spontaneous tendency to die in the absence of neurotrophic factors (Pettmann and Henderson, 1998, Neuronal cell death. Neuron 20(4):633-47). After 3 days, survival is evaluated by measurement of fluorescence after incubation of the cells in the presence of calcein, which becomes fluorescent in living cells.
After 3 days of culture at 37° C., under 5% CO2 and at saturating humidity, up to 50% of the motoneurons seeded initially survive in the medium supplemented with neurotrophic factors, whereas less than 15% of the motoneurons survive in the culture medium without addition of neurotrophic factors.
The neuroprotective activity of the test compounds was evaluated by their capacity for preventing death of motoneurons when they are added to the Neurobasal medium (GIBCO) in comparison with the survival of motoneurons in the medium to which neurotrophic factors were added.
This survival rate is expressed by the number of living cells after treatment with the test compound relative to the survival induced by the neurotrophic factors. This ratio can therefore represent the percentage survival due to the compound tested relative to the survival induced by the neurotrophic factors. If the ratio is greater than 0, the compounds have a positive effect on survival of the motoneurons.

Row | Compound | Ratio (living cells after treatment with the test compound relative to the survival induced by the neurotrophic factors)
1 | CC(C)CCC[C@@H](C)[C@H]1CCC2C3CC/C(=N/O)[C@](C)(CCCN(C)C(=O)CCCC[C@@H]4SC[C@@H]5NC(=O)N[C@@H]54)C3CC[C@@]21C (stereo partly drawn) [Compound 4, 3-[(N-(+)-biotinoyl-N-methyl)amino]-4-nor-3,5-secocholestan-5-one oxime] | >0.2

same assay, conditions: concentration 1 μM; E14 rat motoneurons, 3 days of culture in Neurobasal medium without trophic factors

Row | Compound | Ratio (living cells after treatment with the test compound relative to the survival induced by the neurotrophic factors)
2 | 7-hydroxyamino-4-nor-3,5-secocholest-6-year-3-ol-5-one oxime [Compound 9] | >0.2
3 | CC(C)CCCC(C)C1CCC2C3CCC(=NO)C(C)(CCC(O)C(F)(F)F)C3CCC12C (stereo not drawn) [Compound 3, 4-nor-3,5-seco-3-(trifluoromethyl)cholestan-3-ol-5-one oxime] | >0.2
4 | CC(C)CCC[C@@H](C)[C@H]1CCC2C3CC/C(=N/O)[C@](C)(CCCN(C)c4ccc([N+](=O)[O-])c5nonc45)C3CC[C@@]21C (stereo partly drawn) [Compound 5, 3-[methyl-(7-nitro-2,1,3-benzoxadiazol-4-yl)amino]-4-nor-3,5-secocholestan-5-one oxime] | >0.2
5 | CCCC1(C)C(=NO)CCC2C1CCC1(C)C(C(C)CCCC(C)C)CCC21 (stereo not drawn) [Compound 7, 4-nor-3,5-secocholestan-5-one oxime] | >0.2
6 | CC(C)CCCC(C)C1CCC2C3C=CC(=NO)C(C)(CCCO)C3CCC12C (stereo not drawn) [Compound 8, 4-nor-3,5-secocholest-6-en-3-ol-5-one oxime] | >0.2
7 | CC(C)CCCC(C)C1CCC2C3CCC(=NO)C(C)(CCO)C3CCC12C (stereo not drawn) [Compound 10, 3,4-dinor-2,5-secocholestan-2-ol-5-one oxime] | >0.2
8 | CC(C)=CCCC(C)C1CCC2C3CCC(=NO)C(C)(CCCO)C3CCC12C (stereo not drawn) [Compound 11, 4-nor-3,5-secocholest-24-en-3-ol-5-one oxime] | >0.2
9 | CCC(C=CC(C)C1CCC2C3CCC(=NO)C(C)(CCCO)C3CCC12C)C(C)C (stereo not drawn) [Compound 12, 24β-ethyl-4-nor-3,5-secocholest-22-en-3-ol-5-one oxime] | >0.2

same assay, conditions: concentration 3 μM; E14 rat motoneurons, 3 days of culture in Neurobasal medium without trophic factors

Row | Compound | Ratio (living cells after treatment with the test compound relative to the survival induced by the neurotrophic factors)
10 | CC(CCCC(C)(C)O)C1CCC2C3CCC(=NO)C(C)(CCCO)C3CCC12C (stereo not drawn) [Compound 2, 4-nor-3,5-secocholestan-3,25-diol-5-one oxime] | >0.2
11 | CC(CCCC(C)(C)F)C1CCC2C3CCC(=NO)C(C)(CCCO)C3CCC12C (stereo not drawn) [Compound 6, 25-fluoro-4-nor-3,5-secocholestan-3-ol-5-one oxime] | >0.2

system: avidins (streptavidin or neutravidin); assay: not given; settings: cited from earlier work

Row | Compound | Ka (affinity of avidins for biotin)
12 | O=C(O)CCCC[C@@H]1SC[C@@H]2NC(=O)N[C@@H]21 [biotin] | ~10^7 M
